In PubChem BioAssay (NCI):
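All cell lines were grown in 96-well plates and treated with compound for 48 hours. GI50 is the concentration that inhibits growth by half. TGI: total growth inhibition.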

Assays:
Assay in all cases: NCI tumour cell line growth inhibition, 48 h
TK-10 renal = system: TK-10 renal
NCI-H522 lung = system: NCI-H522 lung
NCI/ADR-RES ovarian = system: NCI/ADR-RES ovarian
MOLT-4 leukemia = system: MOLT-4 leukemia
HOP-92 NSCLC = system: HOP-92 NSCLC
OVCAR-4 ovarian = system: OVCAR-4 ovarian
SK-OV-3 ovarian = system: SK-OV-3 ovarian
HT29 colon = system: HT29 colon
HCC-2998 colon = system: HCC-2998 colon
NCI-H23 lung = system: NCI-H23 lung
DU-145 prostate = system: DU-145 prostate
SN12C renal = system: SN12C renal
K-562 leukemia = system: K-562 leukemia
SK-MEL-2 melanoma = system: SK-MEL-2 melanoma
IGROV1 ovarian = system: IGROV1 ovarian
HS 578T breast = system: HS 578T breast
SK-MEL-5 melanoma = system: SK-MEL-5 melanoma
HL-60(TB) leukemia = system: HL-60(TB) leukemia
RXF 393 renal = system: RXF 393 renal
T-47D breast = system: T-47D breast
LOX IMVI melanoma = system: LOX IMVI melanoma
EKVX NSCLC = system: EKVX NSCLC
UACC-257 melanoma = system: UACC-257 melanoma
SR leukemia = system: SR leukemia
SW-620 colon = system: SW-620 colon
KM12 colon = system: KM12 colon
SF-295 CNS = system: SF-295 CNS
UACC-62 melanoma = system: UACC-62 melanoma
MDA-MB-435 = system: MDA-MB-435
786-0 renal = system: 786-0 renal
PC-3 prostate = system: PC-3 prostate
OVCAR-5 ovarian = system: OVCAR-5 ovarian
HCT-116 colon = system: HCT-116 colon
ACHN renal = system: ACHN renal
MALME-3M melanoma = system: MALME-3M melanoma
BT-549 breast = system: BT-549 breast
COLO 205 colon = system: COLO 205 colon
HCT-15 colon = system: HCT-15 colon
RPMI-8226 leukemia = system: RPMI-8226 leukemia
MDA-MB-231 breast = system: MDA-MB-231 breast
SF-268 CNS = system: SF-268 CNS
A549 NSCLC = system: A549 NSCLC
CCRF-CEM leukemia = system: CCRF-CEM leukemia
UO-31 renal = system: UO-31 renal
SF-539 CNS = system: SF-539 CNS
U251 CNS = system: U251 CNS
NCI-H226 lung = system: NCI-H226 lung
SK-MEL-28 melanoma = system: SK-MEL-28 melanoma
SNB-75 CNS = system: SNB-75 CNS
A498 renal = system: A498 renal
NCI-H460 lung = system: NCI-H460 lung
OVCAR-8 ovarian = system: OVCAR-8 ovarian
M14 melanoma = system: M14 melanoma
OVCAR-3 ovarian = system: OVCAR-3 ovarian
MCF7 breast = system: MCF7 breast
SNB-19 CNS = system: SNB-19 CNS

Compound: CCCCCCC/C=C/[C@H]1O[C@]23C(=O)C[C@@]4(C[C@@H](OC5OC(CO)C(O)C(O)C5O)C[C@@H]4[C@H]2C=C1C)OC3=O (some centres not stated)
- GI50 (TK-10 renal): 6.14 µM
- TGI (TK-10 renal): 12.6 µM
- GI50 (NCI-H522 lung): 1.7 µM
- TGI (NCI-H522 lung): 8.64 µM
- GI50 (NCI/ADR-RES ovarian): 6.99 µM
- TGI (NCI/ADR-RES ovarian): > 33.3 µM
- GI50 (MOLT-4 leukemia): 1.31 µM
- TGI (MOLT-4 leukemia): 14.4 µM
- GI50 (HOP-92 NSCLC): 3.77 µM
- TGI (HOP-92 NSCLC): 11.6 µM
- GI50 (OVCAR-4 ovarian): 3.37 µM
- TGI (OVCAR-4 ovarian): 8.07 µM
- GI50 (SK-OV-3 ovarian): 7.13 µM
- TGI (SK-OV-3 ovarian): 21.6 µM
- GI50 (HT29 colon): 4.18 µM
- TGI (HT29 colon): 11.9 µM
- GI50 (HCC-2998 colon): 4.44 µM
- TGI (HCC-2998 colon): 9.39 µM
- GI50 (NCI-H23 lung): 5.75 µM
- TGI (NCI-H23 lung): 15.8 µM
- GI50 (DU-145 prostate): 4.59 µM
- TGI (DU-145 prostate): 9.87 µM
- GI50 (SN12C renal): 5.46 µM
- TGI (SN12C renal): 14.9 µM
- GI50 (K-562 leukemia): 2.2 µM
- TGI (K-562 leukemia): 18.5 µM
- GI50 (SK-MEL-2 melanoma): 5.33 µM
- TGI (SK-MEL-2 melanoma): 15.1 µM
- GI50 (IGROV1 ovarian): 5.67 µM
- TGI (IGROV1 ovarian): 26.7 µM
- GI50 (HS 578T breast): 9.04 µM
- TGI (HS 578T breast): > 33.3 µM
- GI50 (SK-MEL-5 melanoma): 4.88 µM
- TGI (SK-MEL-5 melanoma): 9.37 µM
- GI50 (HL-60(TB) leukemia): 1.2 µM
- TGI (HL-60(TB) leukemia): 7.53 µM
- GI50 (RXF 393 renal): 4.41 µM
- TGI (RXF 393 renal): 9.15 µM
- GI50 (T-47D breast): 0.911 µM
- TGI (T-47D breast): 9.69 µM
- GI50 (LOX IMVI melanoma): 2.4 µM
- TGI (LOX IMVI melanoma): 6.84 µM
- GI50 (EKVX NSCLC): 6.72 µM
- TGI (EKVX NSCLC): 17.8 µM
- GI50 (UACC-257 melanoma): 5.21 µM
- TGI (UACC-257 melanoma): 12.4 µM
- GI50 (SR leukemia): 1.35 µM
- TGI (SR leukemia): 13.6 µM
- GI50 (SW-620 colon): 3.56 µM
- TGI (SW-620 colon): 11.7 µM
- GI50 (KM12 colon): 4.66 µM
- TGI (KM12 colon): 11.6 µM
- GI50 (SF-295 CNS): 5.12 µM
- TGI (SF-295 CNS): 12.7 µM
- GI50 (UACC-62 melanoma): 4.47 µM
- TGI (UACC-62 melanoma): 10.9 µM
- GI50 (MDA-MB-435): 2.02 µM
- TGI (MDA-MB-435): 7.68 µM
- GI50 (786-0 renal): 4.9 µM
- TGI (786-0 renal): 10.1 µM
- GI50 (PC-3 prostate): 3.81 µM
- TGI (PC-3 prostate): 12.9 µM
- GI50 (OVCAR-5 ovarian): 6.06 µM
- TGI (OVCAR-5 ovarian): 14.7 µM
- GI50 (HCT-116 colon): 1.68 µM
- TGI (HCT-116 colon): 6.03 µM
- GI50 (ACHN renal): 4.31 µM
- TGI (ACHN renal): 8.65 µM
- GI50 (MALME-3M melanoma): 4.82 µM
- TGI (MALME-3M melanoma): 9.87 µM
- GI50 (BT-549 breast): 2.06 µM
- TGI (BT-549 breast): 12.9 µM
- GI50 (COLO 205 colon): 7.1 µM
- TGI (COLO 205 colon): 17.8 µM
- GI50 (HCT-15 colon): 2.53 µM
- TGI (HCT-15 colon): 9.43 µM
- GI50 (RPMI-8226 leukemia): 1.28 µM
- TGI (RPMI-8226 leukemia): > 33.3 µM
- GI50 (MDA-MB-231 breast): 6.47 µM
- TGI (MDA-MB-231 breast): 16.5 µM
- GI50 (SF-268 CNS): 5.12 µM
- TGI (SF-268 CNS): 11.1 µM
- GI50 (A549 NSCLC): 8.48 µM
- TGI (A549 NSCLC): > 33.3 µM
- GI50 (CCRF-CEM leukemia): 1.19 µM
- TGI (CCRF-CEM leukemia): > 33.3 µM
- GI50 (UO-31 renal): 3.61 µM
- TGI (UO-31 renal): 7.57 µM
- GI50 (SF-539 CNS): 5.1 µM
- TGI (SF-539 CNS): 9.99 µM
- GI50 (U251 CNS): 3.55 µM
- TGI (U251 CNS): 7.63 µM
- GI50 (NCI-H226 lung): 5.85 µM
- TGI (NCI-H226 lung): 13.4 µM
- GI50 (SK-MEL-28 melanoma): 5.05 µM
- TGI (SK-MEL-28 melanoma): 10.3 µM
- GI50 (SNB-75 CNS): 2.84 µM
- TGI (SNB-75 CNS): 7.17 µM
- GI50 (A498 renal): 4.78 µM
- TGI (A498 renal): 9.43 µM
- GI50 (NCI-H460 lung): 6.63 µM
- TGI (NCI-H460 lung): 16.8 µM
- GI50 (OVCAR-8 ovarian): 6.08 µM
- TGI (OVCAR-8 ovarian): > 33.3 µM
- GI50 (M14 melanoma): 3.58 µM
- TGI (M14 melanoma): 8.43 µM
- GI50 (OVCAR-3 ovarian): 2.28 µM
- TGI (OVCAR-3 ovarian): 6.71 µM
- GI50 (MCF7 breast): 1.36 µM
- TGI (MCF7 breast): 26.9 µM
- GI50 (SNB-19 CNS): 5.25 µM
- TGI (SNB-19 CNS): 10.2 µM
